From ChEMBL document CHEMBL4033730, “Thiosemicarbazones as inhibitors of tyrosinase enzyme” (Bioorg Med Chem Lett, 2017)
Values belong to the compound of their own block, whether it stands above or below them. Activity calls are given as the source filed them. The rule behind the calls is not given here.

Assays:
[1] = target: T1, Mushroom tyrosinase (Agaricus bisporus) (UniProt O42713+Q00024+C7FF04+C7FF05); experiment: Inhibition of Agaricus bisporus tyrosinase assessed as reduction in diphenolase activity by measuring L-DOPA oxidation at 1.6 mM after 0 to 70 mins by UV-visible specroscopy
Mushroom tyrosinase [2] = target: T2, Mushroom tyrosinase (Agaricus bisporus, UniProt O42713+Q00024+C7FF04+C7FF05); experiment: Inhibition of Agaricus bisporus tyrosinase assessed as reduction in diphenolase activity by measuring L-DOPA oxidation after 30 mins
Mushroom tyrosinase [3] = target: T2, Mushroom tyrosinase; experiment: […] inhibition of Agaricus bisporus tyrosinase assessed as reduction in diphenolase activity by measuring L-DOPA oxidation at 1.6 mM after 30 mins by Lineweaver-Burk plot
Mushroom tyrosinase [4] = target: T2, Mushroom tyrosinase; experiment: Competitive inhibition of Agaricus bisporus tyrosinase assessed as reduction in diphenolase activity by measuring L-DOPA oxidation at 1.6 mM after 30 mins by Lineweaver-Burk plot
[5] = target: T1, Mushroom tyrosinase (Agaricus bisporus); experiment: Inhibition of Agaricus bisporus tyrosinase assessed as reduction in diphenolase activity by measuring L-DOPA oxidation at 1.33 mM after 30 mins
[6] = target: T1, Mushroom tyrosinase (Agaricus bisporus); experiment: Inhibition of Agaricus bisporus tyrosinase assessed as reduction in diphenolase activity by measuring L-DOPA oxidation at 0.29 mM after 30 mins
[7] = target: T1, Mushroom tyrosinase (Agaricus bisporus); experiment: Inhibition of Agaricus bisporus tyrosinase assessed as reduction in diphenolase activity by measuring L-DOPA oxidation at 2.67 mM after 30 mins
[8] = target: T1, Mushroom tyrosinase (Agaricus bisporus); experiment: Competitive inhibition of Agaricus bisporus tyrosinase assessed as reduction in diphenolase activity by measuring L-DOPA oxidation at 1.6 mM after 30 mins UV-visible specroscopy
[9] = target: T1, Mushroom tyrosinase (Agaricus bisporus); experiment: Inhibition of Agaricus bisporus tyrosinase assessed as reduction in diphenolase activity by measuring L-DOPA oxidation at 1.78 mM after 30 mins
[10] = target: T1, Mushroom tyrosinase (Agaricus bisporus); experiment: Inhibition of Agaricus bisporus tyrosinase assessed as reduction in diphenolase activity by measuring L-DOPA oxidation at 0.89 mM after 30 mins
[11] = target: T1, Mushroom tyrosinase (Agaricus bisporus); experiment: Inhibition of Agaricus bisporus tyrosinase assessed as reduction in diphenolase activity by measuring L-DOPA oxidation at 0.44 mM after 30 mins
[12] = target: T1, Mushroom tyrosinase (Agaricus bisporus); experiment: Inhibition of Agaricus bisporus tyrosinase assessed as reduction in diphenolase activity by measuring L-DOPA oxidation at 2.22 mM after 30 mins
[13] = target: T1, Mushroom tyrosinase (Agaricus bisporus); experiment: Inhibition of Agaricus bisporus tyrosinase assessed as reduction in diphenolase activity by measuring L-DOPA oxidation at 0.15 mM after 30 mins
NC(=S)N/N=C/c1ccc(Br)cc1 [14] = experiment: (§1) Inhibition of Agaricus bisporus tyrosinase assessed as reduction in diphenolase activity by measuring apparent Km for L-DOPA oxidation at 1.6 mM after 30 mins by Lineweaver-Burk plot
[15] = test system: COc1cc(/C=N/NC(N)=S)ccc1O; experiment: as §1
NC(=S)N/N=C/c1ccc(Cl)cc1 [16] = experiment: as §1
NC(=S)N/N=C/c1ccc(O)cc1 [17] = experiment: as §1
[18] = test system: CCOc1ccc(/C=N/NC(N)=S)cc1; experiment: as §1
COc1ccc(/C=N/NC(N)=S)cc1 [19] = experiment: as §1
NC(=S)N/N=C/c1ccccc1 [20] = experiment: as §1
[21] = test system: NC(=S)N/N=C/c1ccc(NC(=S)N/N=C/c2ccccn2)cc1; experiment: as §1
NC(=S)N/N=C/c1ccc(Br)cc1 [22] = experiment: (§2) Inhibition of Agaricus bisporus tyrosinase assessed as reduction in diphenolase activity by measuring Vmax for L-DOPA oxidation at 1.6 mM after 30 mins by Lineweaver-Burk plot
[23] = test system: COc1cc(/C=N/NC(N)=S)ccc1O; experiment: as §2
NC(=S)N/N=C/c1ccc(Cl)cc1 [24] = experiment: as §2
NC(=S)N/N=C/c1ccc(O)cc1 [25] = experiment: as §2
[26] = test system: CCOc1ccc(/C=N/NC(N)=S)cc1; experiment: as §2
COc1ccc(/C=N/NC(N)=S)cc1 [27] = experiment: as §2
NC(=S)N/N=C/c1ccccc1 [28] = experiment: as §2
[29] = test system: NC(=S)N/N=C/c1ccc(NC(=S)N/N=C/c2ccccn2)cc1; experiment: as §2
Mushroom tyrosinase [30] = target: T2, Mushroom tyrosinase; experiment: Uncompetitive inhibition of Agaricus bisporus tyrosinase assessed as reduction in diphenolase activity by measuring L-DOPA oxidation at 1.6 mM after 30 mins by Lineweaver-Burk plot

Chain of Mushroom tyrosinase (Agaricus bisporus) (from UniProt O42713+Q00024+C7FF04+C7FF05) (C7FF05 whole entry, looked up): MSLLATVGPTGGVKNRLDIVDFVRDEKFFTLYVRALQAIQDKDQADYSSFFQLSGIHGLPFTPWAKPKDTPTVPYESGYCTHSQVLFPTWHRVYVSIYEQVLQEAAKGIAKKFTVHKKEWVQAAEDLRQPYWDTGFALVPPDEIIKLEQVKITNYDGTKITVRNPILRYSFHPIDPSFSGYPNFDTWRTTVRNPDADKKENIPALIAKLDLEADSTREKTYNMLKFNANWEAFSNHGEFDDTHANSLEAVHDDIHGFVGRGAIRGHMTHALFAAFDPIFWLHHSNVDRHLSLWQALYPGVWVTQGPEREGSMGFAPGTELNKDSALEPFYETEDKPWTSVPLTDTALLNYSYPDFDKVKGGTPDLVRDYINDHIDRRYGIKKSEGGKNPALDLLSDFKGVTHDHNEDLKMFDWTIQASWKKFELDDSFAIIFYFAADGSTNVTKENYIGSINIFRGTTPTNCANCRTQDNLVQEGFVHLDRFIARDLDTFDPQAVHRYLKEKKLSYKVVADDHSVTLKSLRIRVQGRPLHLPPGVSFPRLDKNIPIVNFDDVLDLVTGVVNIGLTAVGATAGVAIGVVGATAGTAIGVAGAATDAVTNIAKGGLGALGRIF
Chain of Mushroom tyrosinase (Agaricus bisporus) (from UniProt O42713+Q00024+C7FF04+C7FF05) (C7FF04 whole entry, looked up): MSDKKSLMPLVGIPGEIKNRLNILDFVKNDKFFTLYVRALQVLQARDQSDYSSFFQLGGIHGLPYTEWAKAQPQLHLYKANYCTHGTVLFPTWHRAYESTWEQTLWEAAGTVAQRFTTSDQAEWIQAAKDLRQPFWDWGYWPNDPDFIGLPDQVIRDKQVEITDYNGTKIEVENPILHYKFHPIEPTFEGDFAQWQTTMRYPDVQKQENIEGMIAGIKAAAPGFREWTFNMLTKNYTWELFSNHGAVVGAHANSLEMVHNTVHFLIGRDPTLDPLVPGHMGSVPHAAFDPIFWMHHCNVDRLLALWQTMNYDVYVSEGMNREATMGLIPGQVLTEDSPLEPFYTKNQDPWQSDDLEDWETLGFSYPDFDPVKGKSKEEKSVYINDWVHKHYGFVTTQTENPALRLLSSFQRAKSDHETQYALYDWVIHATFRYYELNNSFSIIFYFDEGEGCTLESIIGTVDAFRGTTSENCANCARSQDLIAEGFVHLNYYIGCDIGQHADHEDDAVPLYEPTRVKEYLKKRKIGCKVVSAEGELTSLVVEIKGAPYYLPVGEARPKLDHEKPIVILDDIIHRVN
Chain of Mushroom tyrosinase (Agaricus bisporus) (from UniProt O42713+Q00024+C7FF04+C7FF05) (Q00024 whole entry, looked up): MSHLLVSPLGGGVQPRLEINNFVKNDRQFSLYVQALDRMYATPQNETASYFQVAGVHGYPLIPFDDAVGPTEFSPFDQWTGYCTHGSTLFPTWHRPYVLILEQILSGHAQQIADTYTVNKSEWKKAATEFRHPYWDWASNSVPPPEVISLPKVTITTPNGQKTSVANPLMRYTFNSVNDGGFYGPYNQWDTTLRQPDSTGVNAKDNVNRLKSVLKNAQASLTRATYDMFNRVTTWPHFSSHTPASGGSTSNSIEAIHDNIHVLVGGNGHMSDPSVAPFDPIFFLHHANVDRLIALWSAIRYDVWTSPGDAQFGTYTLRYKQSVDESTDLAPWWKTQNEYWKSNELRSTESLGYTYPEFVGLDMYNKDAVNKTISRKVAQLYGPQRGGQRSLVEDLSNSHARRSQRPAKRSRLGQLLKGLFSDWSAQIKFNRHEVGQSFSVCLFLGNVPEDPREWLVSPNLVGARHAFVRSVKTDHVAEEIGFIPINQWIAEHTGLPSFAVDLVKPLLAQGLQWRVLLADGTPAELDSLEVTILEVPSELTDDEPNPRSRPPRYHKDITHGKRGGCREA
Chain of Mushroom tyrosinase (Agaricus bisporus) (from UniProt O42713+Q00024+C7FF04+C7FF05) (O42713 whole entry, looked up): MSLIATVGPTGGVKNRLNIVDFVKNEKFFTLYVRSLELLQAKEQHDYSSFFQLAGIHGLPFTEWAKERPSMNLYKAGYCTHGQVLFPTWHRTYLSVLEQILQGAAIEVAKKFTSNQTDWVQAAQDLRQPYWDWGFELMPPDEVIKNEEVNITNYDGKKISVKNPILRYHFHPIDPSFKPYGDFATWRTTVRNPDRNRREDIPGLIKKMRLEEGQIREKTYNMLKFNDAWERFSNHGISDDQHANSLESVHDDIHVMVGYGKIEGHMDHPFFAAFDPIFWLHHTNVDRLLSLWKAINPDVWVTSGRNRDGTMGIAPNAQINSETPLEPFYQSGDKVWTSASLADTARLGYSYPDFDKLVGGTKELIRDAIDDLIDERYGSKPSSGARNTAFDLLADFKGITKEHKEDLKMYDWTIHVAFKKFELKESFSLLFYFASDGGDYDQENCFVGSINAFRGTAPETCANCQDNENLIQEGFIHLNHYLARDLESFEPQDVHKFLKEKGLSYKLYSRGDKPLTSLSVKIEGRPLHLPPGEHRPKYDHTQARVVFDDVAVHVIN

Compound: NC(=S)N/N=C/c1ccccc1 [PHENYLTHIOSEMICARBAZONE]
inhibition [1]: Active
IC50 (Mushroom tyrosinase [2]): 820 µM
Ki (Mushroom tyrosinase [3]): 4500 µM

Compound: NC(=S)N/N=C/c1ccc(O)cc1
inhibition [1]: Active

Compound: COc1cc(/C=N/NC(N)=S)ccc1O
inhibition [1]: Active
inhibition [5]: 89.2%
inhibition [6]: 45.7%
inhibition [7]: 93.8%
Ki (Mushroom tyrosinase [4]): 60 µM
inhibition [8]: Active
inhibition [9]: 92.8%
inhibition [10]: 79.2%
IC50 (Mushroom tyrosinase [2]): 350 µM
inhibition [11]: 59.3%
inhibition [12]: 94.6%
inhibition [13]: 24%

Compound: NC(=S)N/N=C/c1ccc(Cl)cc1
Ki (Mushroom tyrosinase [4]): 1300 µM
IC50 (Mushroom tyrosinase [2]): 840 µM

Compound: Mushroom tyrosinase (Agaricus bisporus) (from UniProt O42713+Q00024+C7FF04+C7FF05)
Km (NC(=S)N/N=C/c1ccc(Br)cc1 [14]): 0.5 mM
Km [15]: 22.4 mM
Km (NC(=S)N/N=C/c1ccc(Cl)cc1 [16]): 1.9 mM
Km (NC(=S)N/N=C/c1ccc(O)cc1 [17]): 0.7 mM
Km [18]: 21.7 mM
Km (COc1ccc(/C=N/NC(N)=S)cc1 [19]): 26.3 mM
Km (NC(=S)N/N=C/c1ccccc1 [20]): 0.8 mM
Km [21]: 8.3 mM
Vmax (NC(=S)N/N=C/c1ccc(Br)cc1 [22]): 16.6 mM/min
Vmax [23]: 48.1 mM/min
Vmax (NC(=S)N/N=C/c1ccc(Cl)cc1 [24]): 39.7 mM/min
Vmax (NC(=S)N/N=C/c1ccc(O)cc1 [25]): 9.5 mM/min
Vmax [26]: 38.4 mM/min
Vmax (COc1ccc(/C=N/NC(N)=S)cc1 [27]): 34.8 mM/min
Vmax (NC(=S)N/N=C/c1ccccc1 [28]): 18.9 mM/min
Vmax [29]: 27.1 mM/min

Compound: NC(=S)N/N=C/c1ccc(NC(=S)N/N=C/c2ccccn2)cc1
inhibition [1]: Active
Ki (Mushroom tyrosinase [4]): 200 µM
IC50 (Mushroom tyrosinase [2]): 1190 µM

Further lines, results first:

inhibition [1]: Active
Ki (Mushroom tyrosinase [4]): 60 µM
IC50 (Mushroom tyrosinase [2]): 360 µM
Compound: CCOc1ccc(/C=N/NC(N)=S)cc1

inhibition [1]: Active
Ki (Mushroom tyrosinase [4]): 50 µM
IC50 (Mushroom tyrosinase [2]): 440 µM
Compound: COc1ccc(/C=N/NC(N)=S)cc1

inhibition [1]: Active
IC50 (Mushroom tyrosinase [2]): 1420 µM
Ki (Mushroom tyrosinase [30]): 600 µM
Compound: NC(=S)N/N=C/c1ccc(Br)cc1
